# Reference: PubChem BioAssay (NCI)
#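 Exposure lasted 48 hours, with cells grown in 96-well plates and compounds tested at five concentrations. GI50 is the concentration that inhibits growth by half. At the TGI there is no net growth.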
# Tests used:
# Assay in all cases: inhibition of tumour cell growth, NCI panel, 48 h
# [1] = tested on: MDA-MB-435
# [2] = tested on: LOX IMVI melanoma
# [3] = tested on: UACC-257 melanoma
# [4] = tested on: COLO 205 colon
# [5] = tested on: EKVX NSCLC
# [6] = tested on: SNB-75 CNS
# [7] = tested on: SF-295 CNS
# [8] = tested on: MCF7 breast
# [9] = tested on: UO-31 renal
# [10] = tested on: 786-0 renal
# [11] = tested on: NCI-H522 lung
# [12] = tested on: SK-MEL-28 melanoma
# [13] = tested on: SW-620 colon
# [14] = tested on: M14 melanoma
# [15] = tested on: SN12C renal
# [16] = tested on: SNB-19 CNS
# [17] = tested on: PC-3 prostate
# [18] = tested on: OVCAR-5 ovarian
# [19] = tested on: HS 578T breast
# [20] = tested on: NCI-H460 lung
# [21] = tested on: SK-MEL-5 melanoma
# [22] = tested on: HCC-2998 colon
# [23] = tested on: HOP-92 NSCLC
# [24] = tested on: DU-145 prostate
# [25] = tested on: HCT-116 colon
# [26] = tested on: NCI-H226 lung
# [27] = tested on: SF-268 CNS
# [28] = tested on: MOLT-4 leukemia
# [29] = tested on: HT29 colon
# [30] = tested on: HOP-62 NSCLC
# [31] = tested on: BT-549 breast
# [32] = tested on: SR leukemia
# [33] = tested on: IGROV1 ovarian
# [34] = tested on: SF-539 CNS
# [35] = tested on: MDA-MB-231 breast
# [36] = tested on: T-47D breast
# [37] = tested on: OVCAR-3 ovarian
# [38] = tested on: CCRF-CEM leukemia
# [39] = tested on: TK-10 renal
# [40] = tested on: HCT-15 colon
# [41] = tested on: OVCAR-4 ovarian
# [42] = tested on: RPMI-8226 leukemia
# [43] = tested on: HL-60(TB) leukemia
# [44] = tested on: UACC-62 melanoma
# [45] = tested on: A549 NSCLC
# [46] = tested on: KM12 colon
# [47] = tested on: CAKI-1 renal
# [48] = tested on: K-562 leukemia
# [49] = tested on: MALME-3M melanoma
# [50] = tested on: NCI-H23 lung
# [51] = tested on: A498 renal
# [52] = tested on: ACHN renal
# [53] = tested on: U251 CNS
# [54] = tested on: SK-OV-3 ovarian
# [55] = tested on: OVCAR-8 ovarian
smiles,measurement,setting,value
COc1cccc(C(N)=Nc2ccc(OCCCCCCCCn3cncn3)cc2)c1,GI50,[1],130 nM
same,TGI,[1],378 nM
same,GI50,[2],522 nM
same,TGI,[2],11800 nM
same,GI50,[3],2020 nM
same,TGI,[3],27800 nM
same,GI50,[4],315 nM
same,TGI,[4],1090 nM
same,GI50,[5],429 nM
same,TGI,[5],> 75200 nM
same,GI50,[6],262 nM
same,TGI,[6],> 45400 nM
same,GI50,[7],320 nM
same,TGI,[7],11000 nM
same,GI50,[8],266 nM
same,TGI,[8],15000 nM
same,GI50,[9],544 nM
same,TGI,[9],19900 nM
same,GI50,[10],812 nM
same,TGI,[10],26900 nM
same,GI50,[11],274 nM
same,TGI,[11],1290 nM
same,GI50,[12],693 nM
same,TGI,[12],24100 nM
same,GI50,[13],387 nM
same,TGI,[13],> 100000 nM
same,GI50,[14],324 nM
same,TGI,[14],18900 nM
same,GI50,[15],485 nM
same,TGI,[15],14300 nM
same,GI50,[16],576 nM
same,TGI,[16],> 67700 nM
same,GI50,[17],424 nM
same,TGI,[17],> 50300 nM
same,GI50,[18],493 nM
same,TGI,[18],> 45600 nM
same,GI50,[19],374 nM
same,TGI,[19],38900 nM
same,GI50,[20],356 nM
same,TGI,[20],> 33500 nM
same,GI50,[21],286 nM
same,TGI,[21],1090 nM
same,GI50,[22],380 nM
same,TGI,[22],3520 nM
same,GI50,[23],1630 nM
same,TGI,[23],30200 nM
same,GI50,[24],417 nM
same,TGI,[24],31500 nM
same,GI50,[25],417 nM
same,TGI,[25],17100 nM
same,GI50,[26],295 nM
same,TGI,[26],2050 nM
same,GI50,[27],1990 nM
same,TGI,[27],42800 nM
same,GI50,[28],596 nM
same,TGI,[28],> 100000 nM
same,GI50,[29],319 nM
same,TGI,[29],1420 nM
same,GI50,[30],614 nM
same,TGI,[30],18500 nM
same,GI50,[31],975 nM
same,TGI,[31],22300 nM
same,GI50,[32],319 nM
same,TGI,[32],> 56900 nM
same,GI50,[33],530 nM
same,TGI,[33],21000 nM
same,GI50,[34],235 nM
same,TGI,[34],585 nM
same,GI50,[35],385 nM
same,TGI,[35],4890 nM
same,GI50,[36],426 nM
same,TGI,[36],> 72400 nM
same,GI50,[37],369 nM
same,TGI,[37],25400 nM
same,GI50,[38],292 nM
same,TGI,[38],10400 nM
same,GI50,[39],799 nM
same,TGI,[39],> 100000 nM
same,GI50,[40],330 nM
same,TGI,[40],12400 nM
same,GI50,[41],3180 nM
same,TGI,[41],> 100000 nM
same,GI50,[42],293 nM
same,TGI,[42],4870 nM
same,GI50,[43],306 nM
same,TGI,[43],1080 nM
same,GI50,[44],435 nM
same,TGI,[44],17200 nM
same,GI50,[45],581 nM
same,TGI,[45],> 100000 nM
same,GI50,[46],425 nM
same,TGI,[46],> 65500 nM
same,GI50,[47],473 nM
same,TGI,[47],45400 nM
same,GI50,[48],230 nM
same,TGI,[48],> 100000 nM
same,GI50,[49],310 nM
same,TGI,[49],17400 nM
same,GI50,[50],385 nM
same,TGI,[50],15500 nM
same,GI50,[51],14900 nM
same,TGI,[51],59500 nM
same,GI50,[52],650 nM
same,TGI,[52],39400 nM
same,GI50,[53],333 nM
same,TGI,[53],4570 nM
same,GI50,[54],540 nM
same,TGI,[54],49200 nM
same,GI50,[55],342 nM
same,TGI,[55],2100 nM
